In the supplement of paper PMC10307832:

What was measured:
Assay in all cases: relative viability (nuclei count vs DMSO), 5 days (fraction); higher = more cells survive
Doxorubicin + Phenformin = compound: COc1cccc2c1C(=O)c1c(O)c3c(c(O)c1C2=O)C[C@@](O)(C(=O)CO)C[C@@H]3O[C@H]1C[C@H](N)[C@H](O)[C@H](C)O1 [Doxorubicin] + N=C(N)NC(=N)NCCc1ccccc1 [Phenformin] (partner 250 µM)
Procedure, shortened: (§1)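 Relative viability equals treated-well nuclei counts divided by vehicle-well nuclei counts. Counts came from 4× images of lung cancer cell lines grown in 1536-well plates for 5 days after pin-tool dosing on the day after seeding. Dosing used one drug alone or a fixed anchor-drug dose plus five library-drug doses (not always all listed) in √10 steps, and values are medians of duplicate plates.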

BAY61-3606 + Bortezomib = compound: COC1=C(C=C(C=C1)C2=CC3=NC=CN3C(=N2)NC4=C(C=CC=N4)C(=O)N)OC [BAY61-3606] + CC(C)C[C@H](NC(=O)[C@H](Cc1ccccc1)NC(=O)c1cnccn1)B(O)O [Bortezomib] (partner 0.002 µM)
Procedure, shortened: as §1

BAY61-3606 + Pemetrexed = compound: COC1=C(C=C(C=C1)C2=CC3=NC=CN3C(=N2)NC4=C(C=CC=N4)C(=O)N)OC [BAY61-3606] + Nc1nc2[nH]cc(CCc3ccc(C(=O)N[C@@H](CCC(=O)O)C(=O)O)cc3)c2c(=O)[nH]1 [Pemetrexed] (partner 0.2 µM)
Procedure, shortened: as §1

BAY61-3606 + Navitoclax = compound: COC1=C(C=C(C=C1)C2=CC3=NC=CN3C(=N2)NC4=C(C=CC=N4)C(=O)N)OC [BAY61-3606] + CC1(C)CCC(c2ccc(Cl)cc2)=C(CN2CCN(c3ccc(C(=O)NS(=O)(=O)c4ccc(N[C@H](CCN5CCOCC5)CSc5ccccc5)c(S(=O)(=O)C(F)(F)F)c4)cc3)CC2)C1 [Navitoclax] (partner 0.5 µM)
Procedure, shortened: as §1

Row | Cell Line | relative viability (Doxorubicin + Phenformin; first compound 0.001 µM) | relative viability (Doxorubicin + Phenformin; first compound 0.003162 µM) | relative viability (Doxorubicin + Phenformin; first compound 0.01 µM) | relative viability (Doxorubicin + Phenformin; first compound 0.03162 µM) | relative viability (Doxorubicin + Phenformin; first compound 0.1 µM) | relative viability (BAY61-3606 + Bortezomib; first compound 0.02 µM) | relative viability (BAY61-3606 + Bortezomib; first compound 0.06325 µM) | relative viability (BAY61-3606 + Bortezomib; first compound 0.2 µM) | relative viability (BAY61-3606 + Bortezomib; first compound 0.6325 µM) | relative viability (BAY61-3606 + Bortezomib; first compound 2 µM) | relative viability (BAY61-3606 + Pemetrexed; first compound 0.02 µM) | relative viability (BAY61-3606 + Pemetrexed; first compound 0.06325 µM) | relative viability (BAY61-3606 + Pemetrexed; first compound 0.2 µM) | relative viability (BAY61-3606 + Pemetrexed; first compound 0.6325 µM) | relative viability (BAY61-3606 + Pemetrexed; first compound 2 µM) | relative viability (BAY61-3606 + Navitoclax; first compound 0.02 µM) | relative viability (BAY61-3606 + Navitoclax; first compound 0.06325 µM) | relative viability (BAY61-3606 + Navitoclax; first compound 0.2 µM) | relative viability (BAY61-3606 + Navitoclax; first compound 0.6325 µM) | relative viability (BAY61-3606 + Navitoclax; first compound 2 µM)
1 | 201T | 0.442 | 0.476 | 0.468 | 0.416 | 0.432 | 1.03 | 1.1 | 1.09 | 1.13 | 1.09 | 0.358 | 0.366 | 0.339 | 0.325 | 0.32 | 1.22 | 1.2 | 1.23 | 1.21 | 1.3
2 | A549 | – | 0.142 | 0.149 | 0.137 | 0.0431 | – | – | – | – | – | – | – | – | – | – | 1.24 | 1.14 | 1.33 | 1.22 | 0.916
3 | A-427 | 0.263 | 0.337 | 0.292 | 0.337 | 0.33 | 1.04 | 0.889 | 0.994 | 1.05 | 0.871 | 1.05 | 1.02 | 0.992 | 0.892 | 0.908 | 1.03 | 0.983 | 0.962 | 1.06 | 0.914
4 | ABC-1 | 0.223 | 0.161 | 0.206 | 0.188 | 0.156 | 0.291 | 0.308 | 0.35 | 0.427 | 0.284 | – | – | – | – | – | – | – | – | – | –
5 | BEN | 0.251 | 0.231 | 0.278 | 0.256 | 0.283 | 0.99 | 0.829 | 0.764 | 0.799 | 0.931 | 0.959 | 0.627 | 0.727 | 0.748 | 0.724 | 0.0718 | 0.0633 | 0.0644 | 0.0773 | 0.0651
6 | CAL-12T | 0.514 | 0.538 | 0.412 | 0.221 | 0.129 | 1.2 | 0.939 | 0.862 | 0.78 | 0.799 | 1.29 | 1.38 | 1.22 | 1.22 | 0.742 | 1.23 | 1.42 | 1.2 | 1.27 | 0.67
7 | COR-L23 | 0.422 | 0.501 | 0.43 | 0.224 | 0.131 | 1.06 | 1.12 | 0.934 | 0.962 | 0.714 | 0.198 | 0.203 | 0.2 | 0.202 | 0.195 | 1.06 | 1.1 | 1.02 | 1.11 | 0.813
8 | COR-L 105 | 0.57 | 0.533 | 0.434 | 0.295 | 0.286 | 0.85 | 0.688 | 0.622 | 0.807 | 0.388 | 1.24 | 1.13 | 1.11 | 0.994 | 0.968 | 0.79 | 0.714 | 0.624 | 0.812 | 0.409
9 | Calu-6 | – | – | – | – | – | 1.12 | 1.15 | 1.06 | 1.01 | 0.831 | – | – | – | – | – | 0.84 | 0.981 | 0.799 | 0.788 | 0.607
10 | ChaGo-K-1 | 0.438 | 0.522 | 0.503 | 0.363 | 0.223 | 1.22 | 0.933 | 1.03 | 0.917 | 1.1 | 0.265 | 0.268 | 0.253 | 0.265 | 0.253 | 1.18 | 0.822 | 0.946 | 0.666 | 0.983
11 | EBC-1 | – | – | – | – | – | 0.571 | 0.632 | 0.616 | 0.569 | 0.459 | – | – | – | – | – | 0.421 | 0.362 | 0.525 | 0.504 | 0.281
12 | EKVX | 0.255 | 0.236 | 0.237 | 0.245 | 0.22 | 1.12 | 1.09 | 1.03 | 1.16 | 1.06 | 0.439 | 0.368 | 0.401 | 0.495 | 0.346 | 1.04 | 1.04 | 0.884 | 0.959 | 0.938
13 | EMC-BAC-2 | 0.621 | 0.462 | 0.416 | 0.265 | 0.206 | 1.11 | 1.13 | 1.06 | 1.09 | 1.08 | 0.464 | 0.438 | 0.449 | 0.438 | 0.523 | 1.21 | 1.21 | 1.16 | 1.24 | 1.19
14 | EPLC-272H | 0.325 | 0.32 | 0.395 | 0.256 | 0.299 | 1.01 | 0.931 | 0.915 | 0.958 | 0.951 | 0.374 | 0.299 | 0.319 | 0.374 | 0.278 | 1.1 | 1 | 0.934 | 1.19 | 1.19
15 | H3255 | 0.371 | 0.363 | 0.333 | 0.374 | 0.311 | 0.932 | 0.611 | 0.724 | 0.822 | 0.725 | 0.587 | 0.546 | 0.598 | 0.626 | 0.593 | 0.555 | 0.54 | 0.502 | 0.494 | 0.609
16 | HARA | 0.424 | 0.616 | 0.444 | 0.409 | 0.439 | 1.08 | 1.14 | 1.19 | 1.09 | 1.1 | 0.25 | 0.253 | 0.236 | 0.221 | 0.238 | 1.2 | 1.12 | 1.16 | 1.1 | 1.02
17 | HCC-15 | – | 0.518 | 0.355 | 0.148 | 0.135 | 1.04 | 1.06 | 0.967 | 0.937 | 1.01 | 0.235 | 0.216 | 0.233 | 0.213 | 0.204 | 0.796 | 0.703 | 0.691 | 0.702 | 0.683
